Key:
Type in all cases: in vivo
[1] = tested on: reactive oxygen species (ROS); assay: Striatal ROS formation after MA; settings: striatum, 3 days after final MA; p.o.; AME 50, EBS 20, rottlerin 20 mg/kg; GPx-1 (+/+) and (−/−) mice
Method: (§1) The mice received four times of MA (8 mg/kg, ip) or saline as a 2 hr-time interval. Chemicals (AME, EBS, and PKC inhibitors) were administrated for 5 consecutive days (twice daily), and were given 2 times at 4 hr and 30 min before the first MA injection as shown in the experimental schedule. Animals were sacrificed at 4 hrs and 3 days after the final MA administration.
The extent of reactive oxygen species (ROS) formation in the striatum was assessed by measuring the convertion from 2′,7′-dichlorofluorescin diacetate (DCFH-DA) to dichlorofluoresin (DCF) as describe by Bourre et al., (2002) with slight modification. Brain homogenates were added to a tube containing 2 ml of PBS with 10 nmole of DCFH-DA, dissolved in methanol. Mixture were incubated at 37° C. for 3 hours and then measured the absorbance at 480 nm excitation and 525 nm emission. DCF is used as a standard.

phospho MDM2-ser 166 = assay: Striatal phospho-MDM2 expression after MA (western blot); settings: p.o.; AME 50, EBS 20, rottlerin 20 mg/kg; MA 8 mg/kg i.p. x4; GPx-1 (+/+) and (−/−) mice
Method: as §1
(§2) The western blot assays was performed as described previously (Kim et al., 2003). Tissues were homogenized in lysis buffer, containing 200 mM Tris HCl (pH 6.8), 1% SDS, 5 mM EGTA (ethylene glycol tetraacetic acid), 5 mM EDTA (ethylenediaminetetraacetic acid), 10% glycerol, 1× phosphatase inhibitor cocktail I, 1× protease inhibitor cocktail. Lysate was centrifuged at 12,000×g for 30 min and supernatant fraction was used for Western blot analysis. Proteins (20-50 ug/lane) were separated by 6%, 8%, 10% or 15% sodium dodecyl sulfate-polyacrylamide gel electrophoresis and transferred onto the PVDF membranes. Following transfer, the membranes were preincubated with 5% non-fat milk and incubated overnight at 4° C. with primary antibody against β-actin (1:50000, Sigma, St. Louis, Mo., USA), TH (1:5000, Chemicon), TH phosphor-Ser 19 (1:1000, Chemicon,), TH phosphor-Ser 31 (1:500, Chemicon), TH phosphor-Ser 40 (1:500, Chemicon), F4/80 (1:500, Serotec), GPx1 (1:2500, AbFrontier), PKC (1:5000, Santa Cruz biotechnology, Santa Cruz, Calif., USA), p53 (1:5000, Cell signaling, Beverly, Mass., USA), MDM2 (1:1000, BD Pharmingen, San Jose, Calif., USA), MDM2 phospho-Ser 166 (1:1000, cell signaling), BDNF (1:500, Chemicon), GDNF (1:250, Santa Cruz), COX-2 (1:2000, Cayman, Ann Arbor, MC, USA), IL-6 (1:2000, Abcam, Cambridge, Mass., USA), TNF-a (1:1000, R&D Systems, Mckinley place NE, NM, USA), IFN-γ (1:500, Chemicon) or Iba-1 (1:500, Wako, Osaka, Japan). And then, membranes were incubated with HRP-conjugated secondary anti-rabbit IgG (1:1000, GE healthcare, Piscataway, N.J., USA), anti-mouse IgG (1:1000, Sigma) or anti-goat IgG (1:1000, Sigma) for 2 h. […]

p53 = assay: Striatal p53 expression after MA (western blot); settings: p.o.; AME 50, EBS 20, rottlerin 20 mg/kg; MA 8 mg/kg i.p. x4; GPx-1 (+/+) and (−/−) mice
Method: as §1, §2

[2] = tested on: tyrosine hydroxylase (TH); assay: Striatal tyrosine hydroxylase (TH) activity after MA; settings: p.o.; AME 50, EBS 20, rottlerin 20 mg/kg; MA 8 mg/kg i.p. x4; GPx-1 (+/+) and (−/−) mice
Method: as §1
TH activity was measured according to the method of Lucock et al. with some modification (Duan et al., 2005). Briefly, striatum was lysed in 400 μl TH working solution (1-tyrosine: 300 μmol/L; FeSO4: 1 mmol/L; NaAC: 200 mmol/L; NSD-1050:500 won; DTT: 1 mmol/L; MES: 40 mmol/L, pH 5.2-5.6) with freezing-thawing repeatedly for three times. The lysate was reacted for 3 h at 25° C. The reaction was stopped by 0.4 mol/L perchloric acid, and then reactant was centrifuged at 14,000×g for 10 min. Supernatants were collected to assay the amounts of 1-dopa by HPLC-ECD. The activity of TH was expressed as that amount of 1-dopa per minute and per gram of wet tissue.

tyrosine hydroxylase = assay: Striatal and nigral TH-like immunoreactivity after MA (immunocytochemistry); settings: p.o., AME 50, EBS 20, rottlerin 20 mg/kg, MA 8 mg/kg i.p. x4, GPx-1 (+/+) and (−/−) mice; for effect on MA-induced reduction in striatal TH-IR: striatum; for effect on MA-induced nigral reduction in TH-IR: substantia nigra pars compacta
Method: as §1
Animals were sacrificed at 4 hours and 3 days after the last MA injection. They were anesthetized with 60% urethane and perfused transcardially with 50 ml of 50 mM phosphate buffered saline (PBS), followed by 50 ml of a mixture of 4% paraformaldehyde in PBS. The rate of perfusion was 50 ml/min. The brains were removed, post-fixed at 4° C. for 24 h in the same fixative and then cryoprotected in 30% sucrose in PBS. The brains were cut on a horizontal sliding microstome into 40 μm transverse free-floading sections (Kim et al., 1999).
(§3) The immunocytochemistry was performed as described previously (Kim et al., 2000a, b). Briefly, prior to incubation with the primary antibodies, sections were preincubated with 0.3% hydrogen peroxide in PBS for 30 min (to block endogenous peroxidase activity), then in PBS containing 0.4% Triton X-100 for 20 min and 1% normal serum for 20 min. The sections were then incubated for 48 h at 4° C. in primary antibody against tyrosine hydroxylase (1:500, Chemicon, Termecula, Calif., USA), GPx1 (1:500, AbFrontier, Seoul, Korea), PKC (1:200, Santa Cruz biotechnology INC, CA, USA) or F4/80 (1:50, Serotec, Raleigh, N.C., USA). The sections were further incubated with secondary biotinylated antisera (1:1000 dilution; Vector, Brulingame, Calif.) for 1 hr, and immersed in avidin-biotin-peroxidase complex (ABC Elite kit, Vector) for 1 hr. Sections were always washed three times with PBS (pH 7.4) between each incubation step. 3,3′-diaminobenzidine (DAB) was used as a chromogen.

PKCδ = assay: Striatal PKCδ-like immunoreactivity after MA (immunocytochemistry); settings: p.o.; AME 50, EBS 20, rottlerin 20 mg/kg; MA 8 mg/kg i.p. x4; GPx-1 (+/+) and (−/−) mice
Method: as §1
Animals were sacrificed at 4 hours and 3 days after the last MA injection. They were anesthetized with 60% urethane and perfused transcardially with 50 ml of 50 mM phosphate buffered saline (PBS), followed by 50 ml of a mixture of 4% paraformaldehyde in PBS. The rate of perfusion was 50 ml/min. The brains were removed, post-fixed at 4° C. for 24 h in the same fixative and then cryoprotected in 30% sucrose in PBS.
as §3

SMILES | effect on MA-induced increase in ROS [1] | effect on MA-induced decrease in phospho-MDM2 expression (phospho MDM2-ser 166) | effect on MA-induced increase in striatal p53 expression (p53) | effect on MA-induced decrease in TH activity [2] | effect on MA-induced reduction in striatal TH-IR (tyrosine hydroxylase) | effect on MA-induced nigral reduction in TH-IR (tyrosine hydroxylase) | effect on MA-induced increase in striatal PKCδ-IR (PKCδ)
CC(=O)Oc1ccccc1C(=O)Oc1c(C)occc1=O [AME, 3-(2-methyl-4-pyronyl)-2-acetyloxybenzoate] | significantly attenuated | significantly attenuated | significantly inhibited MA-induced increase in p53 expression | decrease in TH activity was attenuated | attenuated this reduction in striatal TH-IR | significantly attenuated MA-induced nigral reduction in TH-IR | significantly attenuated MA-induced increase in striatal PKCδ-IR
O=c1c2ccccc2[se]n1-c1ccccc1 [EBS, 2-phenyl-1,2-benzisoselenazol-3(2H)-one] | significantly attenuated | significantly attenuated | significantly inhibited MA-induced increase in p53 expression | decrease in TH activity was attenuated | attenuated this reduction in striatal TH-IR | significantly attenuated MA-induced nigral reduction in TH-IR | significantly attenuated MA-induced increase in striatal PKCδ-IR
CC(=O)c1c(O)c(C)c(O)c(Cc2c(O)c3c(c(C(=O)/C=C/c4ccccc4)c2O)OC(C)(C)C=C3)c1O [rottlerin] | significantly attenuated | significantly attenuated | significantly inhibited MA-induced increase in p53 expression | decrease in TH activity was attenuated | attenuated this reduction in striatal TH-IR | significantly attenuated MA-induced nigral reduction in TH-IR | significantly attenuated MA-induced increase in striatal PKCδ-IR

Reference: patent US20120328696A1, “ANTI-PARKINSONIAN COMPOUND ACETYLSALICYLIC ACID MALTOL ESTER” (Hutecs Korea Pharmaceutical Co., Ltd., priority 2008, published 2012)
